Experiment [1] can be described thus: Inhibition of recombinant RGGT by uncompetitive inhibition based Lineweaver-Burke plot using Rab1a as substrate.
Experiment [2] relates to J774. The experiment in a line: Cytotoxicity against mouse J774 cells assessed as cell viability after 48 hrs by alamar blue assay. The class given is functional, cell-based. Background: Alamar Blue is a resazurin reagent that responds to reducing activity.
A short description of experiment [3]: Inhibition of GGTase1 assessed as incorporation of [3H]GGPP into His-tagged canine rab1a after 30 mins.
Experiment [4] is described as follows: Inhibition of recombinant RGGT assessed as incorporation of [3H]GGPP into His-tagged canine rab1a after 20 mins.
Experiment [5] is described as follows: Inhibition of recombinant RGGT assessed as incorporation of [3H]GGPP into His-tagged canine rab1a after 30 mins.
Experiment [6] is filed under the species Rattus norvegicus. Description: Antiresorptive activity in Schenk growing rat model assessed as inhibition of bone resorption. The format is functional.
Experiment [7] concerns Osteoclast. The experiment in a line: Antiresorptive activity in rabbit osteoclasts assessed as number of actin rings after 48 hrs using TRITC-phelloidin stain relative to control. The format is functional, cell-based. The note with it: Oryctolagus cuniculus.
In experiment [8] the target is T1, Farnesyl pyrophosphate synthase (Homo sapiens, UniProt P14324).
T1 sequence (P14324 whole entry): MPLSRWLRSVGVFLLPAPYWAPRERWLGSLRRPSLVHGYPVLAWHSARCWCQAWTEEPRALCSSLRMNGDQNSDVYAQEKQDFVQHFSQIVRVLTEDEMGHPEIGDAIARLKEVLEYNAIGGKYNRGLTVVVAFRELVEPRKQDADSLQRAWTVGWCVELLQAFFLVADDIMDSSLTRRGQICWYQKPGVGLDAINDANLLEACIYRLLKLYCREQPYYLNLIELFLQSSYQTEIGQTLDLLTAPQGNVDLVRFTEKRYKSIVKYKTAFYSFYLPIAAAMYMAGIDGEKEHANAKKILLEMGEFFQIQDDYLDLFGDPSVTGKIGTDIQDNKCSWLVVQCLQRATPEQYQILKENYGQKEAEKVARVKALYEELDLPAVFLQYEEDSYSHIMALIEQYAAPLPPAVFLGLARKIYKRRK
The experiment in a line: Inhibition of human FPPS after 10 mins using [14C]IPP as substrate by liquid scintillation counting.

For experiment [9], the system named is J774. The experiment in a line: Inhibition of RGGT-mediated Rab11 prenylation in mouse J774 cells after 24 hrs by Western blot analysis. The format is cell-based. On the technique in general: A western blot detects proteins with antibodies after separation by electrophoresis.
Experiment [10] concerns J774. The experiment in a line: Inhibition of RGGT-mediated Rap1A prenylation in mouse J774 cells after 24 hrs by Western blot analysis. The class given is cell-based.
Experiment [11] addresses T2, Geranylgeranyl transferase type-2 subunit alpha (Homo sapiens) (UniProt Q92696).
T2 sequence (whole entry): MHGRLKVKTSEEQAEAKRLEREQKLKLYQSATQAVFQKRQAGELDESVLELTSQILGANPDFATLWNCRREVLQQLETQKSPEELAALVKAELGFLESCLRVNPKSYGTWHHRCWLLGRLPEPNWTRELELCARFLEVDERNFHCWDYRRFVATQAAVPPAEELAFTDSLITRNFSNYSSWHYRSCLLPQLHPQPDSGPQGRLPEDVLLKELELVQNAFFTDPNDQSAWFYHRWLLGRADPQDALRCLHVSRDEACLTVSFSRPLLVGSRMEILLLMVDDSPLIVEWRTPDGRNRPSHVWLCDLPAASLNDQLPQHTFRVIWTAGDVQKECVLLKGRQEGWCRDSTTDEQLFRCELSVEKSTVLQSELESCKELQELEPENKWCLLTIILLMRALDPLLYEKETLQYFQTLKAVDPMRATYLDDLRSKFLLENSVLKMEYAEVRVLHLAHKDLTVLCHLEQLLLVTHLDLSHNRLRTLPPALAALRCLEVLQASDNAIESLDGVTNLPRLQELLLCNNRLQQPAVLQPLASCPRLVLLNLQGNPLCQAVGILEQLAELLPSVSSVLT
The experiment in a line: Inhibition of rabbit osteoclast rab11 prenylation after 24 hrs by Western blot analysis. The following applies: Oryctolagus cuniculus; target entry is the homologue from another species.

Experiment [12] concerns the target T3, Farnesyl pyrophosphate synthase (Homo sapiens) (UniProt P14324).
T3 sequence (whole entry): T1 sequence (P14324 whole entry)
Description: Inhibition of human FPPS at 10 uM after 10 mins using [14C]IPP as substrate.

Experiment [13] deals with Protein farnesyltransferase/geranylgeranyltransferase type-1 subunit alpha (Homo sapiens) (UniProt P49354). The experiment in a line: Inhibition of GGTase1 assessed as incorporation of [3H]GGPP into His-tagged canine rab1a at 1 mM after 30 mins.
Experiment [14] has as its target T4, Geranylgeranyl pyrophosphate synthase (Homo sapiens) (UniProt O95749).
T4 sequence (whole entry): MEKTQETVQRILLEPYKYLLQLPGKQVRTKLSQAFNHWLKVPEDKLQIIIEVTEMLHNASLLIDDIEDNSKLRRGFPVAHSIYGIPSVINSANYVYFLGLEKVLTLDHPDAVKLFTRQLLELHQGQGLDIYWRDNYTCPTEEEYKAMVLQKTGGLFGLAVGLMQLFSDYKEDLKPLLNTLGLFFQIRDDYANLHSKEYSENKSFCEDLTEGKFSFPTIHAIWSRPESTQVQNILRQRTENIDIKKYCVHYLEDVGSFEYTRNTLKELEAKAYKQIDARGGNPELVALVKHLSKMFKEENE
Description: Inhibition of GGPPS at 1mM after 10 mins using [14C]IPP as substrate by liquid scintillation counting.

Activity calls are given as the source filed them. The rule behind the calls is not given here.

For orientation: Ki means the dissociation constant of the complex between target and ligand, obtained from inhibition or displacement. For orientation: IC50 means the concentration needed to halve the response being measured. On to `O=C(O)C(O)(Cc1cnc2ccccn12)P(=O)(O)O` (single isomer, unassigned; (+)) [(2-HYDROXY-3-IMIDAZO[1,2-A]PYRIDIN-3-YL-2-PHOSPHONOPROPIONIC ACID (ENANTIONMERS)], for which the Ki in experiment [1] amounted to 0.211 µM. The IC50 in experiment [2] (j774) was 31 µM; in [3], over 800 µM; in experiment [4], 1.3 µM; in experiment [5], 1.1 µM.
Consider `O=C(O)C(O)(Cc1cnc2ccccn12)P(=O)(O)O` (racemic) [(2-HYDROXY-3-IMIDAZO[1,2-A]PYRIDIN-3-YL-2-PHOSPHONOPROPIONIC ACID (ENANTIONMERS)], for which the LED in [6] turned out to be 2.8 mg/kg. Besides, the half-inhibitory concentration (IC50) in [7] is 330 µM; in experiment [2] (j774) it was 47 µM; in experiment [8] it was over 10 µM; in experiment [5], 12.5 µM.
Take `O=P(O)(O)C(O)(Cc1cccnc1)P(=O)(O)O`: the LED in experiment [9] and in [10] was 12 µM in each case.
On to `O=C(O)C(O)(Cc1cccnc1)P(=O)(O)O` (single isomer, unassigned; enantiomer 1) [listing 1 of 2 here], for which the concentration for half-maximal inhibition (IC50) in experiment [5] came to 39 µM.
In [11], `O=C(O)C(O)(Cc1cccnc1)P(=O)(O)O` (racemic) [listing 1 of 2 here] displayed an Activity of 200 µM. In [9], this molecule gave an LED of 100 µM. The outcome in experiment [12] was inactive.
On to `O=C(O)C(O)(Cc1cnc2ccccn12)P(=O)(O)O` (single isomer, unassigned; enantiomer 2) [(2-HYDROXY-3-IMIDAZO[1,2-A]PYRIDIN-3-YL-2-PHOSPHONOPROPIONIC ACID (ENANTIONMERS)], for which the IC50 in experiment [2] (j774) is over 800 µM; in experiment [5] it was 67.7 µM.
Consider `O=C(O)C(O)(Cc1cnc2ccccn12)P(=O)(O)O` (single isomer, unassigned; enantiomer 2), for which the LED in experiment [9] was found to be 50 µM; in [10], 4000 µM. The result in experiment [13] and in experiment [14] was inactive.
For the molecule `O=C(O)C(O)(Cc1cccnc1)P(=O)(O)O` (racemic) [listing 2 of 2 here], the LED in [6] is 12 mg/kg. The IC50 was 970 µM in experiment [7]; 2800 µM in [2] (Mus musculus, J774, 48 h); over 2000 µM in experiment [3]; 32 µM in experiment [4]; over 1000 µM in experiment [8]; 51.7 µM in experiment [5]. In addition, the Ki in experiment [1] is 33.6 µM.
For `O=C(O)C(O)(Cc1cccnc1)P(=O)(O)O` (single isomer, unassigned; enantiomer 2) [listing 1 of 2 here], in experiment [9], the LED was determined as 250 µM.
`O=C(O)C(O)(Cc1cnc2ccccn12)P(=O)(O)O` (racemic): the Activity in experiment [11] turned out to be 12.5 µM. Further, the values for the LED in [9] and in [10] were 3 µM and over 100 µM, respectively. Further, in experiment [12], the outcome was inactive.
In turn, `O=C(O)C(O)(Cc1cccnc1)P(=O)(O)O` (single isomer, unassigned; enantiomer 1) [listing 2 of 2 here] showed an LED in experiment [9] of 63 µM.
As to `O=C(O)C(O)(Cc1cnc2ccccn12)P(=O)(O)O` (single isomer, unassigned; (+)), the LED in [9] came to 3 µM; in [10], 100 µM. In addition, the outcome in [13] and in experiment [14] was inactive.
Consider `O=C(O)C(O)(Cc1cccnc1)P(=O)(O)O` (single isomer, unassigned; enantiomer 2) [listing 2 of 2 here], for which the IC50 in [5] was 150 µM.
As to `O=P(O)(O)C(O)(Cc1cnc2ccccn12)P(=O)(O)O` [MINODRONIC ACID], the LED in experiment [9] and in experiment [10] was 3 µM throughout. For the same molecule, the IC50 in experiment [2] (Mus musculus, J774, 48 h) was 3 µM; in experiment [5], over 1000 µM.

The record behind these values is ChEMBL document CHEMBL1157780, “Synthesis, chiral high performance liquid chromatographic resolution and enantiospecific activity of a potent new geranylgeranyl transferase inhibitor, 2-hydroxy-3-imidazo[1,2-a]pyridin-3-yl-2-phosphonopropionic acid” (J Med Chem, 2010).
